Holding throughout (test): relative viability (nuclei count vs DMSO), 5 days (fraction); higher = more cells survive
Compound in the assay “KIN001-266 + Dasatinib”: CCN1CCC(CC1)N2C=C(N=N2)CNC3=CC4=C(C(=CN=C4C(=C3)Cl)C#N)NC5=CC(=C(C=C5)F)Cl [KIN001-266] + Cc1nc(Nc2ncc(C(=O)Nc3c(C)cccc3Cl)s2)cc(N2CCN(CCO)CC2)n1 [Dasatinib] (partner 0.075 µM)
In outline: (§1)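 For relative viability, nuclei counts in treated wells were divided by those in vehicle wells. Lung cancer cell lines had been pin-tool dosed in 1536-well plates the day after seeding and cultured for 5 days, then fixed and stained in one step (final 0.05% Triton X-100, 1% formaldehyde, 1 ug/ml Hoechst) and imaged at 4×. Doses were one drug alone or a fixed anchor-drug dose plus five library-drug doses (not always all listed) in √10 steps, and values are duplicate-plate medians.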

Compound in the assay “KIN001-266 + Vorinostat”: CCN1CCC(CC1)N2C=C(N=N2)CNC3=CC4=C(C(=CN=C4C(=C3)Cl)C#N)NC5=CC(=C(C=C5)F)Cl [KIN001-266] + O=C(CCCCCCC(=O)Nc1ccccc1)NO [Vorinostat] (partner 1 µM)
The method in brief: as §1

Compound in the assay “KIN001-266 + Crizotinib”: CCN1CCC(CC1)N2C=C(N=N2)CNC3=CC4=C(C(=CN=C4C(=C3)Cl)C#N)NC5=CC(=C(C=C5)F)Cl [KIN001-266] + C[C@@H](Oc1cc(-c2cnn(C3CCNCC3)c2)cnc1N)c1c(Cl)ccc(F)c1Cl [Crizotinib] (partner 1 µM)
In outline: as §1

Compound in the assay “KIN001-266 + Navitoclax”: CCN1CCC(CC1)N2C=C(N=N2)CNC3=CC4=C(C(=CN=C4C(=C3)Cl)C#N)NC5=CC(=C(C=C5)F)Cl [KIN001-266] + CC1(C)CCC(c2ccc(Cl)cc2)=C(CN2CCN(c3ccc(C(=O)NS(=O)(=O)c4ccc(N[C@H](CCN5CCOCC5)CSc5ccccc5)c(S(=O)(=O)C(F)(F)F)c4)cc3)CC2)C1 [Navitoclax] (partner 0.5 µM)
In outline:
as §1

Turning to NCI-H2342, the relative viability with KIN001-266 + Dasatinib (first compound 0.08 µM) is 0.298; in the assay with KIN001-266 + Dasatinib (first compound 0.253 µM), 0.303; in the assay with KIN001-266 + Dasatinib (first compound 0.8 µM), 0.258; with KIN001-266 + Dasatinib (first compound 2.53 µM) it was 0.264; with KIN001-266 + Dasatinib (first compound 8 µM), 0.31; with KIN001-266 + Vorinostat (first compound 0.08 µM), 0.693. The relative viability worked out at 0.867 in the assay with KIN001-266 + Vorinostat (first compound 0.253 µM), 0.876 with KIN001-266 + Vorinostat (first compound 0.8 µM), 0.776 in the assay with KIN001-266 + Vorinostat (first compound 2.53 µM) and 1.16 with KIN001-266 + Vorinostat (first compound 8 µM).
As for NCI-H358, the relative viability in the assay with KIN001-266 + Dasatinib (first compound 0.08 µM) turned out to be 0.148; in the assay with KIN001-266 + Dasatinib (first compound 0.253 µM), 0.171; in the assay with KIN001-266 + Dasatinib (first compound 0.8 µM), 0.173; in the assay with KIN001-266 + Dasatinib (first compound 2.53 µM) it was 0.137; in the assay with KIN001-266 + Dasatinib (first compound 8 µM), 0.116; with KIN001-266 + Vorinostat (first compound 0.08 µM) it was 0.663. Further, the relative viability with KIN001-266 + Vorinostat (first compound 0.253 µM) is 0.634; with KIN001-266 + Vorinostat (first compound 0.8 µM), 0.759; in the assay with KIN001-266 + Vorinostat (first compound 2.53 µM) it was 0.611; with KIN001-266 + Vorinostat (first compound 8 µM), 0.262; in the assay with KIN001-266 + Crizotinib (first compound 0.08 µM), 0.537; with KIN001-266 + Crizotinib (first compound 0.253 µM) it was 0.794. Further, the figures for the relative viability in the assay with KIN001-266 + Crizotinib (first compound 0.8 µM), with KIN001-266 + Crizotinib (first compound 2.53 µM) and with KIN001-266 + Crizotinib (first compound 8 µM) were 0.656, 0.454 and 0.268, respectively.
In the case of ABC-1, the relative viability with KIN001-266 + Dasatinib (first compound 0.08 µM) was 0.521; with KIN001-266 + Dasatinib (first compound 0.253 µM), 0.632; in the assay with KIN001-266 + Dasatinib (first compound 0.8 µM), 0.652; with KIN001-266 + Dasatinib (first compound 2.53 µM), 0.489; with KIN001-266 + Dasatinib (first compound 8 µM), 0.399; with KIN001-266 + Vorinostat (first compound 0.08 µM), 1.36. Further, the relative viability in the assay with KIN001-266 + Vorinostat (first compound 0.253 µM) was 1.24; in the assay with KIN001-266 + Vorinostat (first compound 0.8 µM) it was 1.26; with KIN001-266 + Vorinostat (first compound 2.53 µM), 1.09; with KIN001-266 + Vorinostat (first compound 8 µM), 0.987; with KIN001-266 + Crizotinib (first compound 0.08 µM), 1.29; with KIN001-266 + Crizotinib (first compound 0.253 µM), 1.31. Besides, the relative viability amounted to 1.26 in the assay with KIN001-266 + Crizotinib (first compound 0.8 µM), 1.04 with KIN001-266 + Crizotinib (first compound 2.53 µM) and 0.435 with KIN001-266 + Crizotinib (first compound 8 µM).
With NCI-H522, the relative viability with KIN001-266 + Dasatinib (first compound 0.08 µM) was found to be 0.919; with KIN001-266 + Dasatinib (first compound 0.253 µM), 0.918; with KIN001-266 + Dasatinib (first compound 0.8 µM), 0.853; in the assay with KIN001-266 + Dasatinib (first compound 2.53 µM) it was 0.862; with KIN001-266 + Dasatinib (first compound 8 µM) it was 0.934; with KIN001-266 + Vorinostat (first compound 0.08 µM) it was 0.936. Further, the relative viability in the assay with KIN001-266 + Vorinostat (first compound 0.253 µM) amounted to 0.887; in the assay with KIN001-266 + Vorinostat (first compound 0.8 µM) it was 0.876; with KIN001-266 + Vorinostat (first compound 2.53 µM) it was 0.979; with KIN001-266 + Vorinostat (first compound 8 µM), 0.943.
Consider NCI-H1792, for which the relative viability with KIN001-266 + Dasatinib (first compound 0.08 µM) was 0.771; with KIN001-266 + Dasatinib (first compound 0.253 µM) it was 0.787; with KIN001-266 + Dasatinib (first compound 0.8 µM), 0.753; in the assay with KIN001-266 + Dasatinib (first compound 2.53 µM), 0.762; in the assay with KIN001-266 + Dasatinib (first compound 8 µM), 0.906; with KIN001-266 + Navitoclax (first compound 0.08 µM) it was 0.601. Moreover, the relative viability was determined as 0.627 with KIN001-266 + Navitoclax (first compound 0.253 µM); 0.581 in the assay with KIN001-266 + Navitoclax (first compound 0.8 µM); 0.652 with KIN001-266 + Navitoclax (first compound 2.53 µM); 0.661 in the assay with KIN001-266 + Navitoclax (first compound 8 µM); 0.975 with KIN001-266 + Crizotinib (first compound 0.08 µM); 0.898 with KIN001-266 + Crizotinib (first compound 0.253 µM). Further, the results for the relative viability in the assay with KIN001-266 + Crizotinib (first compound 0.8 µM), in the assay with KIN001-266 + Crizotinib (first compound 2.53 µM) and with KIN001-266 + Crizotinib (first compound 8 µM) were 0.932, 0.971 and 0.968, respectively.

The values are drawn from the supplement of paper PMC10307832.
